Test results: patent US9675564B2, “Composition based on ubidecarenone” (Asoltech Srl, priority 2011, dated 2017)
In brackets after ≈: the same amount, converted by molar mass.

What was measured:
[1] = tested on: H9C2 cells; test: Absorption in cardiomyoblasts: intracell penetration and penetration of the mitochondrial membrane, CoQ10 quantified by HPLC; type: cell-based, rats; settings: cultured cells after administration; FIG. 2
Method: Despite the large number of clinical studies on the effects of Coenzyme Q10 supplementation, there are very few experimental data concerning the content of coenzyme Q10 in mitochondria and the cell energy condition after supplementation. Probably, controversial results of clinical and in vitro studies are mainly due to the bio-availability of the form of coenzyme Q10 used.
For this analysis, T67 cells of human astrocytoma and H9C2 cells from rats, deriving from the heart, were cultured in a Dulbecco's modified Eagle medium (DMEM), supplemented with 10% of fetal bovine serum (FBS), 100 Ul/ml of penicillin, 100 μg/ml of streptomycin and 40 μg/ml of gentamicin, in an atmosphere of 5% CO2 at 37° C., with saturation humidity. The vitality of the cells and their number were measured using the exclusion method with Tripan blue (Lowry et al.). The mitochondria were isolated using known procedures (Chomyn, 1996). The cells treated were washed carefully with PBS before the extraction procedures. The extraction of the coenzyme Q10 from the isolated cells and mitochondria was performed as described by Takada et al. (Takada et al., 1984). The quantification of the coenzyme Q10 was done by means of HPLC analysis. […]

[2] = Solubility in water at 37° C. (excess powder, CoQ10 passing into solution by UV or HPLC); type: physicochemical; settings: thermodynamic from solid
Method: The solubility in water at 37° C. (physiological temperature) of the composition according to the present invention was compared with that of the compositions in the examples of comparison.
Verification is carried out after 1 hour and 24 hours (balanced) using the suitable analytical method (for example UV or HPLC spectrophotometry) of the maximum quantity of coenzyme Q10 that passes into the solution.

## COC1=C(OC)C(=O)C(C/C=C(\C)CC/C=C(\C)CC/C=C(\C)CC/C=C(\C)CC/C=C(\C)CC/C=C(\C)CC/C=C(\C)CC/C=C(\C)CC/C=C(\C)CCC=C(C)C)=C(C)C1=O [CoQ10, ubidecarenone]
[1]
  CoQ10 passing from the whole cells to the mitochondria: 4%
[2]; after 1 hour
  solubility at 1 h: 1 µg/mL (≈ 1.16 µM)
[2]; after 24 hours (balanced)
  solubility at 24 h: 4 µg/mL (≈ 4.63 µM)
